Common to all, as to assay: NCI-60 cell line screen, 48 h
For assay [1], the system named is A498.
Assay [2] relates to BT-549.
Assay [3] deals with EKVX.
Assay [4] relates to HCT-15.
Assay [5] concerns K562.
For assay [6], the system named is M14.
Assay [7] deals with NCI-H23.
The subject of assay [8] is NCI/ADR-RES.
The subject of assay [9] is OVCAR-3.
For assay [10], the system named is OVCAR-4.
For assay [11], the system named is PC-3.
Assay [12] deals with RXF 393.
In assay [13] the test system is SF-268.
Assay [14] concerns SK-MEL-5.
The subject of assay [15] is SK-OV-3.
Assay [16] has as its system SR.
Assay [17] deals with SW-620.
In assay [18] the test system is TK-10.
The subject of assay [19] is UACC-257.
Assay [20] deals with CCRF-CEM.

SMILES strings stand for the structures.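 1) Cells in 96-well plates. 2) Compound, 48 h, 5 concentrations. 3) Linear interpolation between surrounding doses. 4) Unreached endpoint = highest concentration. GI50 = concentration required for 50% inhibition of growth.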 Calls of active or inactive are those of the source. Cut-off read from the data, not from the text of the source: active = GI50 up to about 1.1 µM and inactive = higher.

As to `CC(C)(C)OC(=O)CCC1NC(=O)[C@@H]2Cc3c([nH]c4ccccc34)C(C3CCCCC3)N2C1=O` (stereo not given in full), the GI50 was 60.5 µM (inactive) in [1]; 48.8 µM (inactive) in assay [2]; 41.7 µM (inactive) in assay [3]; 34.6 µM in assay [4]; 32.4 µM (inactive) in assay [5]; 27.4 µM (inactive) in [6]. The GI50 was 39.6 µM (inactive) in [7]; 48.8 µM (inactive) in assay [8]; 26.2 µM (inactive) in [9]; 28.8 µM (inactive) in [10]; 18.8 µM (inactive) in [11]; 20 µM (inactive) in assay [12]. The GI50 was 31.4 µM (inactive) in assay [13]; 31 µM (inactive) in assay [14]; 44.6 µM (inactive) in assay [15]; 15.5 µM (inactive) in assay [16]; 44.4 µM (inactive) in [17]; 34.7 µM (inactive) in [18]. The GI50 in assay [19] was 29.4 µM (inactive).
As for `COc1ccc(C2=NNC(=O)c3ccccc3N2c2nc(-c3cccs3)nc3cc(OC)c(OC)cc23)cc1`, the GI50 in assay [1] is 2.61 µM (inactive); in [2] it was 2.62 µM (inactive); in assay [3], 20.9 µM (inactive); in [4], 5.92 µM; in assay [5] it was 24.3 µM (inactive); in [6], 4.29 µM (inactive). Besides, the GI50 is 7.13 µM (inactive) in assay [7]; 5.55 µM (inactive) in [8]; 2.61 µM (inactive) in assay [9]; 1.8 µM (inactive) in [10]; 4.68 µM (inactive) in assay [11]; 6.46 µM (inactive) in [13]. In addition, the GI50 is 3.72 µM (inactive) in assay [14]; 17 µM (inactive) in [15]; 0.673 µM (active) in assay [16]; 4.86 µM (inactive) in assay [17]; 5.24 µM (inactive) in assay [18]; 4.19 µM (inactive) in [19].
Consider `COc1cc(S(=O)(=O)Nc2ccc(-c3csc(N4C(=O)C(C)SC4c4ccccc4)n3)cc2)ccc1Cl` (stereo not given), for which the GI50 is 58.6 µM (inactive) in assay [1]; 20.9 µM (inactive) in assay [2]; 40 µM (inactive) in [20]; 7.52 µM (inactive) in assay [3]; more than 100 µM in [4]; 30.6 µM (inactive) in assay [5]. Moreover, the GI50 was > 100 µM (inactive) in assay [6]; 51.4 µM (inactive) in assay [7]; > 100 µM (inactive) in assay [8]; > 100 µM (inactive) in [9]; 39.6 µM (inactive) in assay [10]; 19.9 µM (inactive) in assay [11]. For the same molecule, the GI50 in assay [12] is 15.5 µM (inactive); in assay [13], 19.7 µM (inactive); in assay [14] it was 19.5 µM (inactive); in [16] it was 25 µM (inactive); in assay [17], 35.4 µM (inactive); in assay [19], 37.4 µM (inactive).
With `CCN(CC)CCCC(C)Nc1cc(/C=C/c2ccc(Cl)cc2)nc2cc(N(C)C)ccc12` (stereo not given), the GI50 in assay [1] was 1.69 µM (inactive); in [2], 1.65 µM (inactive); in assay [20], 1.21 µM (inactive); in assay [3], 1.73 µM (inactive); in assay [4], 1.67 µM; in assay [5] it was 0.272 µM (active). The GI50 in assay [6] was 1.61 µM (inactive); in assay [7], 1.76 µM (inactive); in assay [8], 2.19 µM (inactive); in [9], 1.7 µM (inactive); in assay [11], 1.41 µM (inactive); in assay [12] it was 1.61 µM (inactive). For the same molecule, the GI50 in [13] was 1.83 µM (inactive); in assay [14], 2.01 µM (inactive); in assay [16], 1.25 µM (inactive); in assay [17], 1.33 µM (inactive); in assay [18], 1.91 µM (inactive).
`COc1ccc(C(=O)N(C(=O)N2CCN(c3ccccc3)CC2)S(=O)(=O)c2ccccc2)cc1`: the GI50 in assay [1] is 53.8 µM (inactive); in assay [2], 33.3 µM (inactive); in assay [20], 25.1 µM (inactive); in assay [3], 20.7 µM (inactive); in [4] it was 27.8 µM; in assay [5], 24.2 µM (inactive). The GI50 in [6] was 19.7 µM (inactive); in [7], 24.1 µM (inactive); in [8], 21.9 µM (inactive); in [9] it was 37.8 µM (inactive); in assay [10] it was 30.5 µM (inactive); in assay [11] it was 30.5 µM (inactive). The GI50 was 31.8 µM (inactive) in assay [13]; 14.5 µM (inactive) in [14]; 86.5 µM (inactive) in assay [15]; 18.8 µM (inactive) in [16]; 37.4 µM (inactive) in assay [17]; 38.4 µM (inactive) in [18]. Also, in assay [19], the GI50 was 31.4 µM (inactive).
For `CC(=O)C1(O)CCC2(O)C3(O)CC=C4CC(O)CCC4(C)C3CC(OC(=O)c3ccc(O)cc3)C12C` (stereo not given), the GI50 in assay [1] is > 100 µM (inactive); in assay [2], > 100 µM (inactive); in [20] it was > 100 µM (inactive); in assay [3], > 100 µM (inactive); in [4] it was more than 100 µM; in [5] it was 27 µM (inactive). Also, the GI50 in assay [6], in [7], in assay [8], in assay [9], in assay [10] and in [11] was > 100 µM (inactive) in each case. Moreover, the GI50 in [13], in [14], in assay [15], in assay [16], in assay [17] and in assay [18] was > 100 µM (inactive) throughout. Also, the GI50 in [19] is > 100 µM (inactive).
For `BrCC[P+](c1ccccc1)(c1ccccc1)c1ccccc1`, the GI50 in [1] was 11.4 µM (inactive); in assay [2] it was 14.9 µM (inactive); in [20], 2.25 µM (inactive); in assay [3], 0.792 µM (active); in [4] it was 32.7 µM; in [5], 1.77 µM (inactive). In addition, the GI50 is 4.15 µM (inactive) in assay [6]; 6.31 µM (inactive) in assay [8]; 2.59 µM (inactive) in assay [9]; 6.5 µM (inactive) in assay [10]; 5.21 µM (inactive) in assay [11]; 2.43 µM (inactive) in assay [12]. The GI50 is 2.13 µM (inactive) in [13]; 8.11 µM (inactive) in [14]; 24.5 µM (inactive) in assay [15]; 4.93 µM (inactive) in [16]; 2.51 µM (inactive) in [17]; 16.9 µM (inactive) in assay [18]. Moreover, the GI50 in assay [19] was 3.7 µM (inactive).
With `C/C(=N/NC(=S)Nc1cccc(Cl)c1)c1cccc(/C(C)=N\NC(=S)Nc2cccc(Cl)c2)n1`, the GI50 in assay [1] was 4.85 µM (inactive); in [2] it was 0.94 µM (active); in [20], 1.28 µM (inactive); in assay [3], 3.44 µM (inactive); in [4], 2.49 µM; in assay [5], 2.62 µM (inactive). For the same molecule, the GI50 in [6] is 1.62 µM (inactive); in assay [7], 3.69 µM (inactive); in assay [8], 1.09 µM (active); in assay [9] it was 0.379 µM (active); in assay [10], 5.14 µM (inactive); in assay [11], 3.46 µM (inactive). The GI50 is 2.38 µM (inactive) in assay [12]; 2.03 µM (inactive) in assay [14]; 4.22 µM (inactive) in assay [15]; 0.828 µM (active) in [16]; 3.25 µM (inactive) in [17]; 2.02 µM (inactive) in assay [18]. For the same molecule, in assay [19], the GI50 is 4.66 µM (inactive).
With `Cc1nn(C(=O)c2ccc(Cl)cc2)c2c1C(c1ccccc1[N+](=O)[O-])SC(=N)N2` (stereo not given), the GI50 in [2] was > 10 µM (inactive); in assay [20], > 10 µM (inactive); in assay [3], > 10 µM (inactive); in assay [4], more than 10 µM; in assay [5] it was > 10 µM (inactive); in [6] it was > 10 µM (inactive). For the same molecule, the GI50 in assay [7] was > 10 µM (inactive); in [8], > 10 µM (inactive); in assay [9], > 10 µM (inactive); in assay [10], > 10 µM (inactive); in [11], > 10 µM (inactive); in assay [12], 0.569 µM (active). For the same molecule, the GI50 in assay [13], in assay [14], in assay [15], in assay [16], in [17] and in [18] was > 10 µM (inactive) throughout. Further, in assay [19], the GI50 was > 10 µM (inactive).
Regarding `COC(=O)C(NC(=O)c1ccccc1)c1ccco1` (stereo not given), the GI50 was > 100 µM (inactive) in assay [1]; > 100 µM (inactive) in assay [2]; > 100 µM (inactive) in assay [20]; > 100 µM (inactive) in assay [3]; more than 100 µM in [4]; > 100 µM (inactive) in assay [5]. Further, the GI50 in [6], in assay [7], in [8], in assay [9], in [11] and in assay [12] was > 100 µM (inactive) throughout. Besides, the GI50 in [13], in assay [14], in assay [15], in [16], in [17] and in [18] was > 100 µM (inactive) throughout. In assay [19], the GI50 was > 100 µM (inactive).
For the molecule `C=C(C)[C@@H]1CC[C@]2(C)CC[C@]3(C)[C@H](CC[C@@H]4[C@@]5(C)CC[C@H](OC(=O)c6ccccc6)C(C)(C)[C@@H]5CC[C@]43C)[C@@H]12`, the GI50 in [1] is > 100 µM (inactive); in assay [2] it was > 100 µM (inactive); in assay [20], > 100 µM (inactive); in assay [3], > 100 µM (inactive); in [4], more than 100 µM; in assay [5], > 100 µM (inactive). Moreover, the GI50 in assay [6], in assay [7], in assay [8], in [9], in assay [10] and in assay [11] was > 100 µM (inactive) in each case. Besides, the GI50 is > 100 µM (inactive) in [13]; > 100 µM (inactive) in assay [14]; > 100 µM (inactive) in assay [15]; 48.2 µM (inactive) in assay [16]; > 100 µM (inactive) in assay [17]; > 100 µM (inactive) in assay [18]. For the same molecule, the GI50 in assay [19] was > 100 µM (inactive).

For the origin of these results see ChEMBL document CHEMBL1201862, “PubChem BioAssay data set” (2004).
